Experimental data: patent publication US8058332B2, “Phosphorus-sulfur FR additives and polymer systems containing same” (priority 2006, dated 2011)

Type: physicochemical
Settings: TGA, nitrogen 60 mL/min, heating rate 10° C./min, room temperature to 600° C.
Method: A useful indicator of thermal stability is a 5% weight loss temperature, which is measured by thermogravimetric analysis as follows: ˜10 milligrams of the phosphorus-sulfur FR additive is analyzed using a TA Instruments model Hi-Res TGA 2950 or equivalent device, with a 60 milliliters per minute (mL/min) flow of gaseous nitrogen and a heating rate of 10° C./min over a range of from room temperature (nominally 25° C.) to 600° C. The mass lost by the sample is monitored during the heating step, and the temperature at which the sample has lost 5% of its initial weight is designated the 5% weight loss temperature (5% WLT). This method provides a temperature at which a sample undergoes a cumulative weight loss of 5 wt %, based on initial sample weight. […] When it is to be used in a melt-processing operation with a combustible polymer, the phosphorus-sulfur FR additive should have a 5% WLT of at least 150° C.

Molecule	5% WLT
2,2′,2″,2″′-[1,2,4,6-phenylenetetra(methylthio)]tetra[5,5-dimethyl-1,3,2-dioxaphosphorinane]-2,2′,2″,2″′-sulfide [Example 7]	281 °C
2,2′-{1,4-phenylenebis[(dimethylsilanediyl)ethane-2,1-diylbicyclo[2.2.1]heptane-6,2-diylthio]}bis(5,5-dimethyl-1,3,2-dioxaphosphorinane) 2,2′-disulfide [Example 27]	285 °C
CC1(C)COP(=S)(SC/C=C/CSP2(=S)OCC(C)(C)CO2)OC1 [Example 1, 2,2′-[2-butene-1,4-diylbis(methylthio)]bis[5,5-dimethyl-1,3,2-dioxaphosphorinane]-2,2′-disulfide]	241 °C
CC1(C)COP(=S)(SCc2ccccc2CSP2(=S)OCC(C)(C)CO2)OC1 [Example 4, 2,2′-[1,2-phenylenebis(methylthio)]bis[5,5-dimethyl-1,3,2-dioxaphosphorinane]-2,2′-disulfide]	240 °C
CC1(C)COP(=O)(SCc2ccccc2CSP2(=O)OCC(C)(C)CO2)OC1 [Example 5, 2,2′-[1,2-phenylenebis(methylthio)]bis[5,5-dimethyl-1,3,2-dioxaphosphorinane]-2,2′-dioxide]	247 °C
Cc1c(CSP2(=S)OCC(C)(C)CO2)c(C)c(CSP2(=S)OCC(C)(C)CO2)c(C)c1CSP1(=S)OCC(C)(C)CO1 [Example 8, 2,2′,2″-[2,4,6-trimethyl-1,3,5-phenylenetris(methylthio)]tris[5,5-dimethyl-1,3,2-dioxaphosphorinane]-2,2′,2″-disulfide]	283 °C
CC1(C)COP(=S)(SCP(=O)(CSP2(=S)OCC(C)(C)CO2)CSP2(=S)OCC(C)(C)CO2)OC1 [Example 16]	243 °C
CC1(C)COP(=S)(Sc2nc(SP3(=S)OCC(C)(C)CO3)nc(SP3(=S)OCC(C)(C)CO3)n2)OC1 [Example 17, 2,2′,2″-[s-triazine-2,4,6-tris(thio)]tris[(5,5-dimethyl-1,3,2-dioxaphosphorinane)-2,2′,2″-sulfide]]	249 °C
CC1(C)COP(=S)(N(Cc2ccccc2)P2(=S)OCC(C)(C)CO2)OC1 [Example 18, N-benzyl-N-(5,5-dimethyl-2-sulfido-1,3,2-dioxaphosphorinan-2-yl)-5,5-dimethyl-1,3,2-dioxaphosphorinan-2-amine-2-sulfide]	202 °C
CC1(C)COP(=S)(Cc2ccccc2CP2(=S)OCC(C)(C)CO2)OC1 [Example 19, [1,2-phenylenebis(methylene)]bis[5,5-dimethyl[1,3,2]dioxaphosphorinane]2,2′-disulfide]	284 °C
CC1(C)COP(=S)(SCCCCSP2(=S)OCC(C)(C)CO2)OC1 [Example 20, 2,2′-[1,4-butylbis(methylthio)]bis[5,5-dimethyl-1,3,2-dioxaphosphorinane]-2,2′-disulfide]	244 °C
CC1(C)COP(=S)(SC2CC3CC2CC3SP2(=S)OCC(C)(C)CO2)OC1 (stereo not drawn) [Example 21, 2,2′-[bicyclo[2.2.1]heptane-2,5-diylbis(thio)]bis[5,5-dimethyl-1,3,2-dioxaphosphorinane]2,2′-disulfide]	264 °C
CCOC(=O)CC(SP1(=S)OCC(C)(C)CO1)C(=O)OCC (stereo not drawn) [Example 23]	218 °C
CC(CCCCCCC(C)SP1(=S)OCC(C)(C)CO1)SP1(=S)OCC(C)(C)CO1 (stereo not drawn) [Example 24, 2,2′-[decane-2,9-diylbis(thio)]bis(5,5-dimethyl-1,3,2-dioxaphosphorinane)2,2′-disulfide]	239 °C
CC1(C)COP(=S)(SC(c2ccccc2)c2ccccc2)OC1 [Example 25, 2-[(diphenylmethyl)thio]-5,5-dimethyl-1,3,2-dioxaphosphorinane 2-sulfide]	238 °C
O=P1(SC/C=C/CSP2(=O)Oc3ccccc3-c3ccccc32)Oc2ccccc2-c2ccccc21 (stereo not drawn) [Example 26]	270 °C
CC1(C)COP(=O)(Cc2ccc(CSP3(=S)OCC(C)(C)CO3)cc2)OC1 [Example 28, 2-({4-[(5,5-dimethyl-2-oxido-1,3,2-dioxaphosphorinan-2-yl)methyl]benzyl}thio)-5,5-dimethyl-1,3,2-dioxaphosphorinane-2-sulfide]	257 °C
O=P1(SCc2ccccc2CSP2(=O)Oc3ccccc3-c3ccccc32)Oc2ccccc2-c2ccccc21 (stereo not drawn) [Example 29, 6,6′-[1,2-phenylenebis(methylenethio)]bis(6H-dibenz[c, e][1,2]oxaphosphorin) 6,6′-dioxide]	262 °C
Cc1c(CSP2(=O)Oc3ccccc3-c3ccccc32)c(C)c(CSP2(=O)Oc3ccccc3-c3ccccc32)c(C)c1CSP1(=O)Oc2ccccc2-c2ccccc21 (stereo not drawn) [Example 30, 6,6′,6″-[(2,4,6-trimethylbenzene-1,3,5-triyl)tris(methylenethio)]tris(6H-dibenzo-[c, e][1,2]oxaphosphorin) 6,6′,6″-trioxide]	219 °C
CC(COCC(COCC(C)SP1(=S)OCC(C)(C)CO1)(COCC(C)SP1(=S)OCC(C)(C)CO1)COCC(C)SP1(=S)OCC(C)(C)CO1)SP1(=S)OCC(C)(C)CO1 (stereo not drawn) [Example 31]	241 °C
CC1(C)COP(=S)(SCc2c(CSP3(=S)OCC(C)(C)CO3)c(CSP3(=S)OCC(C)(C)CO3)c(CSP3(=S)OCC(C)(C)CO3)c(CSP3(=S)OCC(C)(C)CO3)c2CSP2(=S)OCC(C)(C)CO2)OC1 [Example 33, 2,2′,2″,2″′,2″″′,2″″″-[benzene-1,2,3,4,5,6-hexaylhexakis(methylenethio)]hexakis(5,5-dimethyl-1,3,2-dioxaphosphorinane) 2,2′,2″,2″′,2′″″,2″″″-hexasulfide]	262 °C
CC1(C)COP(=S)(SCCC(=O)NCNC(=O)CCSP2(=S)OCC(C)(C)CO2)OC1 [Example 36]	220 °C
CC1(C)COP(=S)(SC(c2ccccc2)c2cccc(C(SP3(=S)OCC(C)(C)CO3)c3ccccc3)c2)OC1 (stereo not drawn) [Example 37, 2,2′-{1,3-phenylenebis[(phenylmethylene)thio]}bis(5,5-dimethyl-1,3,2-dioxaphosphorinane) 2,2′-disulfide]	259 °C
S=P1(CC(c2ccccc2)c2ccccc2)OCC2(CO1)COP(=S)(SC(c1ccccc1)c1ccccc1)OC2 (stereo not drawn) [Example 38]	240 °C
